Assay results published in article PMC10859961, “Ir(III) Half-Sandwich Photosensitizers with a π-Expansive Ligand for Efficient Anticancer Photodynamic Therapy” (Journal of Medicinal Chemistry, 2024).
Read-outs that look alike come from different tables or passages of the source.

Legend:
[1] = tested on: multicellular A549 tumor spheroids; test: Cytotoxic activity against spheroids (CellTiter-Glo 3D); type: cell-based, human; conditions: for IC50: 48 h
Description: For the evaluation of the cytotoxic activity of complex 6 in 3D cultures, 96-well plates coated with a thin solidified layer of Geltrex reduced growth factor basement membrane matrix (Gibco) were used to form A549 spheroids. A density of 1500 single cells per well was seeded in culture medium supplemented with 2% Geltrex. Treatments with concentrations of complex 6 ranging from 5 to 0.001 μM in culture medium containing 2% Geltrex were performed at day 6. The cells were then kept in the dark or photoactivated with blue light, as described. After 48 h, the treatments were removed, the cells were washed with PBS and cell viability was determined by adding 100 μL of medium and 100 μL of CellTiter-Glo 3D reagent (Promega) to each well. Following the manufacturer’s protocol, the cells were kept in agitation for 5 min and incubated for 25 min at room temperature. Then, the luminescence was determined using a Multiscan Plate Reader (Synergy 4, Biotek, Winooski). The IC50 values were calculated with the Gen5 Data Analysis Software (BioTeck) for two independent experiments, each with duplicate samples. Nontreated cells were used as control.

A549 cells = test: Cell internalization (iridium content by ICP-MS); type: cell-based, human; conditions: for iridium content in cells: 10 μM, 1 h
Description: To assess the cell internalization mechanism, 8 × 10^6 A549 cells were incubated with complex 6 at 10 μM for 1 h in the dark under different conditions: (i) at 37 °C (positive control cells), (ii) at 37 °C in the presence of CCCP (50 μM) (to inhibit mitochondrial ATP production) or (iii) at 4 °C (to inhibit cellular metabolism). The cells incubated with medium alone were included as negative control. Then, the cells were washed twice with PBS, detached with trypsin, and centrifuged to obtain the whole cell pellet. […] The iridium amount in the samples was then determined by inductively coupled plasma mass spectrometry (ICP-MS) analysis. To this end, the cell pellets were dissolved in 400 μL of 69% v/v nitric acid (PanReac Applichem) and heated in a water bath at 100 °C for 18 h. Samples were then allowed to cool and diluted with Milli-Q water to a final volume of 10 mL. […] Iridium content was measured on an ICP-MS Agilent 7500c instrument at the Serveis Tècnics de Recerca, Universitat de Girona. The solvent used for all ICP-MS experiments was Milli-Q water with 2% superpure grade HNO3. The iridium standard (high purity standards, 1000 μg/mL ± 2 μg/mL in 5% hydrochloric acid in low TOC water (<50 ppb)) was diluted with 2% HNO3 to 400 ppb. Iridium standards were freshly prepared in Milli-Q water with 2% HNO3 before each experiment. The concentrations used for the calibration curve were 0, 1, 2, 5, 10, and 20 ppb. The isotope detected was 193Ir and readings were done in triplicate. Rhodium was added as an internal standard at a concentration of 10 ppb to all samples. All of the experiments were performed by duplicate.

For `Cc1c(C)c(C)[c-](C)c1C.F[B-](F)(F)F.c1ccc2cc3nc4c5ccc[n+]6c5c5[c](cccc5c4nc3cc2c1)[Ir]6[n+]1ccn(CCN2CCCCC2)c1` [complex 6, [(η^5-C5Me5) Ir(Imepip)(pbpn)]BF4], the IC50 ([1]; blue light photoactivation, read-out: IC50,light) was 0.005 ± 0.001 µM, the IC50 ([1]; dark, read-out: IC50,dark) was 1.2 ± 0.2 µM and the PI ([1]; blue light) was 240. The “iridium content in cells” value (A549 cells; 4 °C) was 18.0 ± 3 ng/10^6 cells, the “iridium content in cells” value (A549 cells; 37 °C, no inhibition) was 87.6 ± 4 ng/10^6 cells and the “iridium content in cells” value (A549 cells; CCCP pretreatment) was 17.6 ± 2 ng/10^6 cells. The “reduction of iridium content vs 37 °C” value (A549 cells; at 4 °C or with CCCP pretreatment) was “approximately 80%”.
